Experimental data: PubChem BioAssay (NCI)
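The concentration for 50% growth inhibition is given as GI50. Definition used: TGI = concentration required for complete inhibition of growth.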

Assays:
Test in all cases: inhibition of tumour cell growth, NCI panel, 384-well format
A549 NSCLC = test system: A549 NSCLC
CAKI-1 renal = test system: CAKI-1 renal
HS 578T breast = test system: HS 578T breast
KM12 colon = test system: KM12 colon
M14 melanoma = test system: M14 melanoma
MDA-MB-231 breast = test system: MDA-MB-231 breast
MDA-MB-435 melanoma = test system: MDA-MB-435 melanoma
MDA-MB-468 breast = test system: MDA-MB-468 breast
NCI-H23 lung = test system: NCI-H23 lung
PC-3 prostate = test system: PC-3 prostate
SW-620 colon = test system: SW-620 colon
U251 glioblastoma = test system: U251 glioblastoma
UACC-62 melanoma = test system: UACC-62 melanoma

For `O=c1[nH]nc2c3c(cccc13)NC(CN1Cc3ccccc3C1)=N2`, the GI50 (A549 NSCLC) was 5.19 µM, the TGI (A549 NSCLC) was 67.5 µM and the GI50 (CAKI-1 renal) was 2030 nM. For the same compound, the TGI (CAKI-1 renal) was > 100 µM, the GI50 (HS 578T breast) was 5.78 µM and the TGI (HS 578T breast) was > 100 µM. The GI50 (KM12 colon) was 6.04 µM, the TGI (KM12 colon) was > 62.4 µM and the GI50 (M14 melanoma) was 6.09 µM. The TGI (M14 melanoma) was > 100 µM, the GI50 (MDA-MB-231 breast) was 2810 nM and the TGI (MDA-MB-231 breast) was 14.5 µM. The GI50 (MDA-MB-435 melanoma) was 3.74 µM, the TGI (MDA-MB-435 melanoma) was 15.6 µM and the GI50 (MDA-MB-468 breast) was 2220 nM. It also gave a TGI (MDA-MB-468 breast) of 9.99 µM, a GI50 (NCI-H23 lung) of 2270 nM and a TGI (NCI-H23 lung) of 15.3 µM. It also gave a GI50 (PC-3 prostate) of 4.32 µM, a TGI (PC-3 prostate) of 57.5 µM and a GI50 (SW-620 colon) of 8.37 µM. For the same compound, the TGI (SW-620 colon) was > 100 µM, the GI50 (U251 glioblastoma) was 7.61 µM and the TGI (U251 glioblastoma) was > 100 µM. For the same compound, the GI50 (UACC-62 melanoma) was 7.14 µM and the TGI (UACC-62 melanoma) was > 100 µM.
